Values of other authors in US9834484B1, “Plant enhancer and a method of using the same” (priority 2016, dated 2017).

System: tumor growth
Conditions: some studies show

β-glucan
inhibits tumor growth: more than 95%
